Results: ChEMBL document CHEMBL1201862, “PubChem BioAssay data set” (2004)
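Dose response: 5 concentrations. Exposure: 48 h. Format: 96-well plates. Endpoint: linear interpolation; highest concentration if not reached. GI50 is the concentration that inhibits growth by half.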 Active and inactive are the calls of the source. No stated cut-off is given here; in the data, active = GI50 up to about 1.1 µM and inactive = higher. Where a SMILES comes first, the peptide text is derived from it. [ ]: non-standard residue; d: D form. The star is where a group is joined. Octanoyl = CCCCCCCC(=O)*; Aib = CC(C)(N)C(=O)O; tBu = CC(C)(C)*

How the values were obtained:
Experiment in all cases: NCI tumour cell line growth inhibition, 48 h
[1] = test system: 786-0
[2] = test system: A498
[3] = test system: COLO 205
[4] = test system: HCT-15
[5] = test system: HL-60
[6] = test system: HOP-62
[7] = test system: HOP-92
[8] = test system: M14
[9] = test system: MDA-MB-231
[10] = test system: Malme-3M
[11] = test system: NCI/ADR-RES
[12] = test system: OVCAR-3
[13] = test system: PC-3
[14] = test system: SK-MEL-5
[15] = test system: SNB-19
[16] = test system: SNB-75
[17] = test system: SW-620
[18] = test system: UO-31
[19] = test system: MOLT-4
[20] = test system: RPMI-8226

Structure (SMILES) | GI50 [1] | GI50 [2] | GI50 [3] | GI50 [4] [µM] | GI50 [5] | GI50 [6] | GI50 [7] | GI50 [8] | GI50 [9] | GI50 [10] | GI50 [11] | GI50 [12] | GI50 [13] | GI50 [14] | GI50 [15] | GI50 [16] | GI50 [17] | GI50 [18] | GI50 [19] | GI50 [20]
O=C1C(/C=C/c2ccc(Cl)cc2)=NNC2N1N=C1NC(=O)C3(NN12)c1ccccc1-c1ccccc13 (stereo unspecified) | > 100 µM (inactive) | > 100 µM (inactive) | > 100 µM (inactive) | 69.5 | > 100 µM (inactive) | > 100 µM (inactive) | 41.9 µM (inactive) | > 100 µM (inactive) | > 100 µM (inactive) | > 100 µM (inactive) | > 100 µM (inactive) | > 100 µM (inactive) | > 100 µM (inactive) | > 100 µM (inactive) | > 100 µM (inactive) | > 100 µM (inactive) | > 100 µM (inactive) | 94 µM (inactive) |  | 
COc1ccc(C2=Nn3c(nc4sc(-c5ccccc5)cc4c3=O)SC2)cc1 | 36.9 µM (inactive) | > 100 µM (inactive) | > 100 µM (inactive) | > 100 | > 100 µM (inactive) | 54.8 µM (inactive) | > 100 µM (inactive) |  | > 100 µM (inactive) | > 100 µM (inactive) | > 100 µM (inactive) | > 100 µM (inactive) | > 100 µM (inactive) | > 100 µM (inactive) |  |  | 37.3 µM (inactive) | > 100 µM (inactive) | > 100 µM (inactive) | > 100 µM (inactive)
[N-]=[N+]=Nc1c([N+](=O)[O-])c(=O)n(-c2ccccc2)c2ccccc12 | 19.5 µM (inactive) | 73.5 µM (inactive) | 21.1 µM (inactive) | 21.9 |  | 43.7 µM (inactive) | 26.4 µM (inactive) | 27.2 µM (inactive) | 17.8 µM (inactive) | 17 µM (inactive) | 20.7 µM (inactive) | 4.5 µM (inactive) | 16.6 µM (inactive) | 24.2 µM (inactive) | 32.3 µM (inactive) | 20.1 µM (inactive) | 29.2 µM (inactive) | 14.8 µM (inactive) | 21.4 µM (inactive) | 16 µM (inactive)
CC(C)n1c(=O)c2nn3c(=O)n(C(C)C)c(=O)c3nn2c1=O | > 100 µM (inactive) | > 100 µM (inactive) | > 100 µM (inactive) | > 100 | > 100 µM (inactive) | > 100 µM (inactive) | > 100 µM (inactive) | > 100 µM (inactive) | > 100 µM (inactive) | > 100 µM (inactive) | > 100 µM (inactive) | > 100 µM (inactive) | > 100 µM (inactive) | > 100 µM (inactive) | > 100 µM (inactive) |  | > 100 µM (inactive) |  | > 100 µM (inactive) | 
c1ccc2c(-c3cnc(-c4c[nH]c5ccccc45)cn3)c[nH]c2c1 | 38.1 µM (inactive) | > 100 µM (inactive) | 34.4 µM (inactive) | 58.6 |  | 37.8 µM (inactive) | 28.6 µM (inactive) | 29.1 µM (inactive) | 91 µM (inactive) | 38.9 µM (inactive) | 74.5 µM (inactive) | 27.2 µM (inactive) | 38 µM (inactive) | 50.1 µM (inactive) | 58.7 µM (inactive) | 22.6 µM (inactive) | 18.9 µM (inactive) | 39.5 µM (inactive) |  | 45.3 µM (inactive)
O=C(COc1ccc(OCC(=O)N2C(=O)CC(=O)N(c3ccccc3)C2=S)cc1)N1C(=O)CC(=O)N(c2ccccc2)C1=S | 56.1 µM (inactive) | 80.2 µM (inactive) | 61.2 µM (inactive) | 88.5 |  |  | 52 µM (inactive) | 89.5 µM (inactive) | 46.8 µM (inactive) | > 100 µM (inactive) | > 100 µM (inactive) |  | 56.9 µM (inactive) |  | 69.7 µM (inactive) | > 100 µM (inactive) | 72.1 µM (inactive) | 61.4 µM (inactive) | 41.8 µM (inactive) | 31.1 µM (inactive)
COC(=O)[C@H](Cc1ccccc1)NC(=O)[C@H](Cc1ccccc1)NC(=O)[C@@H]1CCCN1C(=O)N[C@H]1C2C=CC(C2)C1C(=O)N1CCC[C@H]1C(=O)N[C@@H](C)C(=O)N[C@H](C(=O)OC)C(C)C (stereo partly specified) | > 100 µM (inactive) | > 100 µM (inactive) | > 100 µM (inactive) | > 100 | 35.7 µM (inactive) | > 100 µM (inactive) | 73.1 µM (inactive) | > 100 µM (inactive) | 46.5 µM (inactive) | > 100 µM (inactive) | > 100 µM (inactive) | > 100 µM (inactive) | > 100 µM (inactive) | > 100 µM (inactive) | > 100 µM (inactive) | > 100 µM (inactive) | 69.3 µM (inactive) | > 100 µM (inactive) | 29.4 µM (inactive) | 
O=c1/c(=C/c2ccc(-c3ccc(Cl)cc3Cl)o2)sc2n1[C@@H](c1ccc(Cl)cc1)C=C(c1cc(F)c(Cl)cc1Cl)N=2 | 45.3 µM (inactive) | 2.05 µM (inactive) | 78.5 µM (inactive) | 35.6 | < 0.01 µM (active) | 10.6 µM (inactive) | 26.1 µM (inactive) | > 100 µM (inactive) | 23.6 µM (inactive) | > 100 µM (inactive) | 50.8 µM (inactive) |  | > 100 µM (inactive) | 46.5 µM (inactive) | 35.6 µM (inactive) | 63.4 µM (inactive) | 33.6 µM (inactive) | 41.5 µM (inactive) | 22.4 µM (inactive) | 31.1 µM (inactive)
Cc1nc2c(=O)[nH]c3ccc(Cl)cc3c2o1 | > 100 µM (inactive) | > 100 µM (inactive) | > 100 µM (inactive) | > 100 |  | > 100 µM (inactive) | > 100 µM (inactive) | > 100 µM (inactive) | > 100 µM (inactive) | > 100 µM (inactive) | > 100 µM (inactive) | > 100 µM (inactive) | > 100 µM (inactive) | > 100 µM (inactive) | > 100 µM (inactive) | > 100 µM (inactive) | > 100 µM (inactive) | > 100 µM (inactive) | > 100 µM (inactive) | > 100 µM (inactive)
C=C(Cl)/C(=C\Cl)CCC(Br)C(C)C (stereo unspecified) | 60.1 µM (inactive) | > 100 µM (inactive) | > 100 µM (inactive) |  | 63.5 µM (inactive) | > 100 µM (inactive) | > 100 µM (inactive) | 64.3 µM (inactive) | 24.9 µM (inactive) |  | > 100 µM (inactive) | > 100 µM (inactive) | > 100 µM (inactive) | > 100 µM (inactive) | > 100 µM (inactive) | > 100 µM (inactive) | 19.5 µM (inactive) | 78.2 µM (inactive) | 37.9 µM (inactive) | > 100 µM (inactive)
N#Cc1ncc(C(Cl)Cl)nc1Cl | 1.76 µM (inactive) | > 10 µM (inactive) | 1.77 µM (inactive) | 1.82 | 0.748 µM (active) | 3.07 µM (inactive) | 0.00769 µM (active) | 1.13 µM (inactive) | 1.74 µM (inactive) | 2.43 µM (inactive) | 2.14 µM (inactive) | 2.12 µM (inactive) | 1.8 µM (inactive) | 1.75 µM (inactive) | 6.38 µM (inactive) | 2.29 µM (inactive) | 1.94 µM (inactive) | 1.78 µM (inactive) | 3.37 µM (inactive) | 
COC(=O)C1CCC(=O)N1CN(C(C)=O)c1ccccc1Cl (stereo unspecified) | > 100 µM (inactive) | > 100 µM (inactive) | > 100 µM (inactive) | > 100 |  | > 100 µM (inactive) | > 100 µM (inactive) | > 100 µM (inactive) | > 100 µM (inactive) | > 100 µM (inactive) | > 100 µM (inactive) | > 100 µM (inactive) | > 100 µM (inactive) | > 100 µM (inactive) | > 100 µM (inactive) | > 100 µM (inactive) | > 100 µM (inactive) | > 100 µM (inactive) | > 100 µM (inactive) | > 100 µM (inactive)
CCCCCCCC(=O)NC(C)(C)C(=O)NC(COC(C)(C)C)C(=O)NC(CC(C)C)C(=O)NC(C)(C)C(=O)NC(COC(C)(C)C)C(=O)NC(COC(C)(C)C)C(=O)NC(CC(C)C)C(=O)NC(C)(C)C(=O)NC(COC(C)(C)C)C(=O)NC(C(=O)NC(CC(C)C)C(=O)OC)C(C)CC (stereo unspecified) (Octanoyl-[Aib]S(tBu)L[Aib]S(tBu)S(tBu)L[Aib]S(tBu)IL-OMe; configuration not given here) | 7.89 µM (inactive) | 5.5 µM (inactive) | 6.55 µM (inactive) | 8.13 | 6.46 µM (inactive) | 9.31 µM (inactive) | 4.43 µM (inactive) | 6.32 µM (inactive) | 5.86 µM (inactive) |  | > 25 µM (inactive) | 4.85 µM (inactive) | 4.23 µM (inactive) | 6.22 µM (inactive) | 7.55 µM (inactive) | 5.24 µM (inactive) | 8.95 µM (inactive) | 14.6 µM (inactive) | 5.52 µM (inactive) | 2.72 µM (inactive)
CCCCCCC(O)C(O)CCC(O)C1CCC(CCCCC(O)CC2=CC(C)OC2=O)O1 (stereo unspecified) [ACETOGENINS] | 6.58 µM (inactive) | 17.5 µM (inactive) | 1.75 µM (inactive) | 4.53 |  | 3.81 µM (inactive) | 4.88 µM (inactive) | 3.15 µM (inactive) | 1.2 µM (inactive) | 17 µM (inactive) | 1.14 µM (inactive) | 1.71 µM (inactive) | 2.78 µM (inactive) | 1.04 µM (active) | 2.74 µM (inactive) | 2.69 µM (inactive) | 4.04 µM (inactive) | 2.06 µM (inactive) | 2.59 µM (inactive) | 7.41 µM (inactive)
